According to article PMC6156125, “Chemistry and Hypoglycemic Activity of GPR119 Agonist ZB-16” (Frontiers in Endocrinology, 2018):
Values joined by “and” are separate entries in the source; they are usually repeats but may differ in a detail not shown here. Equal entries are not always repeated. Where two headings read alike, the source gives them in different places.

Assay: Pharmacokinetics in vivo after single oral or intravenous administration
Set-up: species or system rat
Conditions: rats, 10 mg/kg; for Vd: read-out: Vz
Description: The pharmacokinetics of ZB-16 in a dose of 10 mg/kg after single oral or intravenous administration was studied in 6 male Wistar rats weighing 250–280 g. The blood from the tail vein (200 μL) was collected before and at 0, 0.25, 0.5, 1, 2, 4, 8, 12, and 24 h after ZB-16 administration. The blood concentrations of the test compounds in animals were evaluated using HPLC-MS/MS. Basic pharmacokinetic parameters were calculated using a non-model method and WinNonlin Professional 6.0 (Pharsight Corporation, Mountain View, CA, USA) based on the experimental concentration-time data obtained on each animal.

[1] = male, Wistar, rat, plasma, iv, i.v. injection, Mean ± SD (n = 3)
[2] = male, Wistar, rat, plasma, iv, i.v. injection, individual rat
[3] = male, Wistar, rat, plasma, po, oral administration, Mean ± SD (n = 3)
[4] = male, Wistar, rat, plasma, po, oral administration, individual rat
[5] = oral administration, individual rat

For `O=S1(=O)COc2cc(-c3ccc(OCC4CCN(c5ncc(Cl)cn5)CC4)c(F)c3)ccc21` [ZB-16], the AUC(0-t) (male, Wistar, plasma, iv, i.v. injection, individual rat, read-out: AUC 0-t) was 244 ng·h/mL, the Tmax (male, Wistar, plasma, oral administration, individual rat) was 4 h and the half-life (male, Wistar, rat, plasma, read-out: half-life) was > 720 min. The bioavailability (male, Wistar, rat, plasma, oral vs i.v., read-out: absolute bioavailability) was 8%, the AUC(0-inf) [1] was 339 ± 97.2 ng·h/mL and the clearance [1] was 100 mL/min/kg. For the same compound, the k el [1] was 1.39e-05 s⁻¹, the AUC(0-t) (male, Wistar, rat, plasma, iv, i.v. injection, Mean ± SD (n = 3), read-out: AUC 0-t) was 218 ± 30.4 ng·h/mL and the C0 (male, Wistar, rat, plasma, iv, i.v. injection, Mean ± SD (n = 3), read-out: C0) was 32 ± 8.7 ng/mL. The MRT last (male, Wistar, rat, plasma, iv, i.v. injection, Mean ± SD (n = 3), read-out: MRT last) was 9 ± 1 h, the Vd [1] was 123 ± 18.1 L/kg and the half-life (male, Wistar, rat, plasma, iv, i.v. injection, Mean ± SD (n = 3), read-out: t1/2 (converted)) was 900 ± 348 min. For the same compound, the AUC(0-inf) [2] was 441 ng·h/mL, the clearance [2] was 83.3 mL/min/kg and the k el [2] was 8.33e-06 s⁻¹. It also gave an AUC(0-t) (male, Wistar, rat, plasma, iv, i.v. injection, individual rat, read-out: AUC 0-t) of 226 ng·h/mL, a C0 (male, Wistar, rat, plasma, iv, i.v. injection, individual rat, read-out: C0) of 29 ng/mL and an MRT last (male, Wistar, rat, plasma, iv, i.v. injection, individual rat, read-out: MRT last) of 10 h. It also gave a Vd [2] of 139 L/kg, a half-life (male, Wistar, rat, plasma, iv, i.v. injection, individual rat, read-out: t1/2 (converted)) of 1260 min and an AUC(0-inf) [3] of 119 ± 11.9 ng·h/mL. It also gave a k el [3] of 1.67e-05 s⁻¹, an AUC(0-t) (male, Wistar, rat, plasma, po, oral administration, Mean ± SD (n = 3), read-out: AUC 0-t) of 85 ± 17.6 ng·h/mL and a Cmax (male, Wistar, rat, plasma, po, oral administration, Mean ± SD (n = 3), read-out: Cmax) of 6 ± 1.2 ng/mL. For the same compound, the MRT last (male, Wistar, rat, plasma, po, oral administration, Mean ± SD (n = 3), read-out: MRT last) was 9 ± 1 h, the half-life (male, Wistar, rat, plasma, po, oral administration, Mean ± SD (n = 3), read-out: t1/2 (converted)) was 780 ± 312 min and the AUC(0-inf) [4] was 124 ng·h/mL. The k el [4] was 1.11e-05 s⁻¹, the AUC(0-t) (male, Wistar, rat, plasma, po, oral administration, individual rat, read-out: AUC 0-t) was 69 ng·h/mL and the Cmax (male, Wistar, rat, plasma, po, oral administration, individual rat, read-out: Cmax) was 4 ng/mL. For the same compound, the MRT last (male, Wistar, rat, plasma, po, oral administration, individual rat, read-out: MRT last) was 10 h, the half-life (male, Wistar, rat, plasma, po, oral administration, individual rat, read-out: t1/2 (converted)) was 1140 min and the “AUC 0−∞” value (i.v. injection, individual rat) was 247 ng·h/mL and 329 ng·h/mL. For the same compound, the “AUC(0-t)” value (i.v. injection, individual rat) was 184 ng·h/mL, the C0 (i.v. injection, individual rat) was 26 ng/mL and 42 ng/mL and the CL (i.v. injection, individual rat) was 8 L/h/kg. The Kel (i.v. injection, individual rat) was 0.06 h⁻¹, the MRT last (i.v. injection, individual rat) was 8 h and the Vz (i.v. injection, individual rat) was 127 L/kg and 104 L/kg. The t1/2 (i.v. injection, individual rat) was 11 h and 12 h, the “AUC 0−∞” value [5] was 128 ng·h/mL and 105 ng·h/mL and the “AUC(0-t)” value [5] was 104 ng·h/mL and 83 ng·h/mL. It also gave a Cmax [5] of 7 ng/mL, a Kel [5] of 0.07 h⁻¹ and a t1/2 [5] of 10 H.
